Assays:
Staphylococcus aureus [1] = experiment: Antibacterial activity against Staphylococcus aureus assessed as growth inhibition at 1 mg/well after 24 hrs by Well method; assay type: functional
[2] = test system: Staphylococcus epidermidis; experiment: Antibacterial activity against Staphylococcus epidermidis assessed as growth inhibition at 1 mg/well after 24 hrs by Well method; assay type: functional
Staphylococcus aureus [3] = experiment: Antibacterial activity against methicillin-resistant Staphylococcus aureus assessed as growth inhibition at 1 mg/well after 24 hrs by Well method; assay type: functional
Salmonella typhimurium [4] = experiment: Antibacterial activity against Salmonella typhimurium assessed as growth inhibition at 1 mg/well after 24 hrs by Well method; assay type: functional, Salmonella enterica subsp. enterica serovar Typhimurium
Proteus vulgaris [5] = experiment: Antibacterial activity against Proteus vulgaris assessed as growth inhibition at 1 mg/well after 24 hrs by Well method; assay type: functional
Micrococcus luteus [6] = experiment: Antibacterial activity against Micrococcus luteus assessed as growth inhibition at 1 mg/well after 24 hrs by Well method; assay type: functional
Klebsiella pneumoniae [7] = experiment: Antibacterial activity against Klebsiella pneumoniae assessed as growth inhibition at 1 mg/well after 24 hrs by Well method; assay type: functional
Shigella flexneri [8] = experiment: Antibacterial activity against Shigella flexneri assessed as growth inhibition at 1 mg/well after 24 hrs by Well method; assay type: functional
Bacillus subtilis [9] = experiment: Antibacterial activity against Bacillus subtilis assessed as growth inhibition at 1 mg/well after 24 hrs by Well method; assay type: functional
Pseudomonas aeruginosa [10] = experiment: Antibacterial activity against Pseudomonas aeruginosa assessed as growth inhibition at 1 mg/well after 24 hrs by Well method; assay type: functional
Candida albicans [11] = experiment: Antifungal activity against Candida albicans assessed as growth inhibition at 1 mg/well after 48 hrs by Well method; assay type: functional
Malassezia pachydermatis [12] = experiment: Antifungal activity against Malassezia pachydermatis assessed as growth inhibition at 1 mg/well after 48 hrs by Well method; assay type: functional
Staphylococcus aureus [13] = experiment: Antibacterial activity against Staphylococcus aureus after 24 hrs by two fold serial dilution method; assay type: functional
[14] = test system: Staphylococcus epidermidis; experiment: Antibacterial activity against Staphylococcus epidermidis after 24 hrs by two fold serial dilution method; assay type: functional
Staphylococcus aureus [15] = experiment: Antibacterial activity against methicillin-resistant Staphylococcus aureus after 24 hrs by two fold serial dilution method; assay type: functional
Salmonella typhimurium [16] = experiment: Antibacterial activity against Salmonella typhimurium after 24 hrs by two fold serial dilution method; assay type: functional, Salmonella enterica subsp. enterica serovar Typhimurium; conditions: Salmonella enterica
Proteus vulgaris [17] = experiment: Antibacterial activity against Proteus vulgaris after 24 hrs by two fold serial dilution method; assay type: functional
Micrococcus luteus [18] = experiment: Antibacterial activity against Micrococcus luteus after 24 hrs by two fold serial dilution method; assay type: functional
Klebsiella pneumoniae [19] = experiment: Antibacterial activity against Klebsiella pneumoniae after 24 hrs by two fold serial dilution method; assay type: functional
Shigella flexneri [20] = experiment: Antibacterial activity against Shigella flexneri after 24 hrs by two fold serial dilution method; assay type: functional
Bacillus subtilis [21] = experiment: Antibacterial activity against Bacillus subtilis after 24 hrs by two fold serial dilution method; assay type: functional
Pseudomonas aeruginosa [22] = experiment: Antibacterial activity against Pseudomonas aeruginosa after 24 hrs by two fold serial dilution method; assay type: functional
Candida albicans [23] = experiment: Antifungal activity against Candida albicans after 48 to 72 hrs by two fold serial dilution method; assay type: functional
Malassezia pachydermatis [24] = experiment: Antifungal activity against Malassezia pachydermatis after 48 to 72 hrs by two fold serial dilution method; assay type: functional
Klebsiella aerogenes [25] = experiment: Antibacterial activity against Enterobacter aerogenes assessed as growth inhibition at 1 mg/well after 24 hrs by Well method; assay type: functional
Klebsiella aerogenes [26] = experiment: Antibacterial activity against Enterobacter aerogenes after 24 hrs by two fold serial dilution method; assay type: functional
Aspergillus flavus [27] = experiment: Antifungal activity against Aspergillus flavus after 48 to 72 hrs by two fold serial dilution method; assay type: functional
Aspergillus flavus [28] = experiment: Antifungal activity against Aspergillus flavus assessed as growth inhibition at 1 mg/well after 48 hrs by Well method; assay type: functional

Row | Compound | inhibition zone (IZ) (Staphylococcus aureus [1]) [mm] | inhibition zone (IZ) [2] [mm] | inhibition zone (IZ) (Staphylococcus aureus [3]) [mm] | inhibition zone (IZ) (Salmonella typhimurium [4]) [mm] | inhibition zone (IZ) (Proteus vulgaris [5]) [mm] | inhibition zone (IZ) (Micrococcus luteus [6]) [mm] | inhibition zone (IZ) (Shigella flexneri [8]) [mm] | inhibition zone (IZ) (Bacillus subtilis [9]) [mm] | inhibition zone (IZ) (Pseudomonas aeruginosa [10]) [mm] | MIC (Staphylococcus aureus [13]) [µg/mL] | MIC [14] [µg/mL] | MIC (Staphylococcus aureus [15]) [µg/mL] | MIC (Salmonella typhimurium [16]) [µg/mL] | MIC (Proteus vulgaris [17]) [µg/mL] | MIC (Micrococcus luteus [18]) [µg/mL] | MIC (Shigella flexneri [20]) [µg/mL] | MIC (Bacillus subtilis [21]) [µg/mL] | MIC (Pseudomonas aeruginosa [22]) [µg/mL] | inhibition zone (IZ) (Klebsiella aerogenes [25]) [mm] | MIC (Klebsiella aerogenes [26]) [µg/mL] | also measured
1 | C[C@@H](NCCC(=O)c1ccc(Cl)cc1)[C@@H](O)c1ccccc1.Cl | 36 | 36 | 33 | 30 | 32 | 29 | 30 | 24 | 23 | 3.13 | 3.13 | 3.13 | 6.25 | 3.13 | 6.25 | 6.25 | 12.5 | 12.5 | 34 | 3.13 | inhibition zone (IZ) (Klebsiella pneumoniae [7]): 18 mm; inhibition zone (IZ) (Candida albicans [11]): 24 mm; inhibition zone (IZ) (Malassezia pachydermatis [12]): 15 mm; MIC (Klebsiella pneumoniae [19]): 50 µg/mL; MIC (Candida albicans [23]): 12.5 µg/mL; MIC (Malassezia pachydermatis [24]): 50 µg/mL
2 | C[C@H](NCCC(=O)c1ccc(Cl)cc1Cl)[C@H](O)c1ccccc1.Cl | 36 | 35 | 31 | 30 | 32 | 35 | 31 | 30 | 29 | 25 | 25 | 25 | 25 | 25 | 25 | 25 | 25 | 25 | 34 | 25 | inhibition zone (IZ) (Candida albicans [11]): 22 mm; MIC (Klebsiella pneumoniae [19]): > 50 µg/mL; MIC (Aspergillus flavus [27]): 25 µg/mL
3 | Cc1ccc(C(=O)CCN[C@H](C)[C@@H](O)c2ccccc2)cc1.Cl | 24 | 31 | 28 | 25 | 28 | 22 | 20 | 22 | 23 | 25 | 3.13 | 6.25 | 12.5 | 6.25 | 25 | 50 | 12.5 | 12.5 | 27 | 12.5 | inhibition zone (IZ) (Klebsiella pneumoniae [7]): 15 mm; inhibition zone (IZ) (Aspergillus flavus [28]): 20 mm; MIC (Klebsiella pneumoniae [19]): 50 µg/mL; MIC (Aspergillus flavus [27]): 50 µg/mL
4 | Cc1ccc(C(=O)CCN[C@@H](C)[C@H](O)c2ccccc2)cc1.Cl | 22 | 24 | 23 | 23 | 24 | 22 | 22 | 18 | 20 | 3.13 | 3.13 | 3.13 | 3.13 | 3.13 | 3.13 | 3.13 | 6.25 | 3.13 | 24 | 3.13 | inhibition zone (IZ) (Klebsiella pneumoniae [7]): 13 mm; inhibition zone (IZ) (Aspergillus flavus [28]): 22 mm; MIC (Aspergillus flavus [27]): 50 µg/mL
5 | C[C@@H](NCCC(=O)c1cccc([N+](=O)[O-])c1)[C@@H](O)c1ccccc1.Cl | 14 | 18 | 16 | 18 | 20 | 18 | 19 | 18 | 17 | 50 | 50 | 50 | 50 | 50 | 50 | 50 | 25 | 50 | 17 | 50 | inhibition zone (IZ) (Candida albicans [11]): 15 mm; inhibition zone (IZ) (Malassezia pachydermatis [12]): 21 mm; MIC (Candida albicans [23]): 50 µg/mL; MIC (Malassezia pachydermatis [24]): 25 µg/mL
6 | C[C@@H](NCCC(=O)c1cccc(O)c1)[C@@H](O)c1ccccc1.Cl | 20 | 24 | 22 | 20 | 22 | 34 | 21 | 20 | 20 | 50 | 25 | 25 | 50 | 25 | 3.13 | 25 | 25 | 25 | 21 | 25 | inhibition zone (IZ) (Klebsiella pneumoniae [7]): 20 mm; inhibition zone (IZ) (Malassezia pachydermatis [12]): 14 mm; MIC (Klebsiella pneumoniae [19]): 50 µg/mL; MIC (Malassezia pachydermatis [24]): > 50 µg/mL
7 | C[C@H](NCCC(=O)c1cccc(O)c1)[C@H](O)c1ccccc1.Cl | 24 | 28 | 23 | 22 | 24 | 35 | 22 | 23 | 22 | 25 | 6.25 | 25 | 25 | 25 | 3.13 | 25 | 12.5 | 12.5 | 22 | 25 | inhibition zone (IZ) (Klebsiella pneumoniae [7]): 24 mm; MIC (Klebsiella pneumoniae [19]): 25 µg/mL
